Experimental data published in patent US20260216175A1, “COMPLEMENT INHIBITION” (Apellis Pharmaceuticals, Inc., priority 2023, published 2026).

test system: complement activation; experiment: not given; settings: fold activity relative to compstatin amidated at the C-terminus; based on published data and assays (WO2004/026328, WO2007044668, Mallik 2005; Katragadda 2006); cited from earlier work

Row | Compound | Activity over compstatin [× more]
1 | Ac-ICV(1-Nal)QDWGAHRCT-COOH [Ac V4(1-Nal)/H9A —OH] | 30
2 | Ac-ICV(2-IgI)QDWGAHRCT-CONH2 [Ac-V42IgI/H9A] | 39
3 | Ac-ICV(2-IgI)QDWGAHRCT-COOH [Ac-V42IgI/H9A —OH] | 37
4 | Ac-ICV(2-Nal)QDWGAHRCT-CONH2 [Ac-V4(2-Nal)/H9A] | 99
5 | Ac-ICV(2-Nal)QDWGAHRCT-COOH [Ac V4(2-Nal)/H9A —OH] | 38
6 | Ac-ICV(Bpa)QDWGAHRCT-CONH2 [Ac-V4(Bpa)/H9A] | 86
7 | Ac-ICV(Bpa)QDWGAHRCT-COOH [Ac-V4(Bpa)/H9A —OH] | 49
8 | Ac-ICVDhtQDWGAHRCT-COOH [Ac-V4Dht/H9A —OH] | 5
9 | Ac-ICVVQDWGHHRCT-CONH2 [Ac-compstatin] | 3
10 | Ac-ICVWQD(5fW)GAHRCT-CONH2 [Ac-V4W/W7(5fW)/H9A] | 121
11 | Ac-ICVWQDWGAHRCT-CONH2 (Ac-ICVWQDWGAHRCT-NH2; cysteine pairing not given here) [Ac-V4W/H9A, compstatin analog] | 45
12 | Ac-ICVWQDWGAHRCdT-COOH [Ac-V4W/H9A/T13dT —OH] | 55
13 | Ac-ICVYQDWGAHRCT-CONH2 [Ac-V4Y/H9A] | 14
14 | H-GICV(6fW)QD(6fW)GAHRCTN-COOH [+G/V4(6fW)/W7(6fW)H9A + N—OH] | 126

test system: not listed separately; experiment: biological activity of enantiomers (assay not specified); settings: first eluting vs second eluting enantiomer

Row | Compound | biological activity, comparison of enantiomers
15 | COc1cc(C)c2[nH]ccc2c1CN1CCN(CC(F)F)CC1c1ccc(C(=O)O)c(O)c1 (single isomer, unassigned) [Example 68, 4-(4-(2,2-difluoroethyl)-1-((5-methoxy-7-methyl-1H-indol-4-yl)methyl)piperazin-2-yl)-2-hydroxybenzoic acid] | more active enantiomer
